Experimental data from ChEMBL document CHEMBL3885861, “Open TG-GATES”.

Species: Rattus norvegicus
Assay: Open TG-GATES - Regimen: Daily Repeat
Format: toxicity, organism-based, Sprague-Dawley
Design: regimen Daily Repeat, gender Male, age 6 weeks
Conditions: in vivo, po, route gavage; for Bas / Eos / Fbg / Hb / Ht / Lym / MCH / MCHC / MCV / Mono / Neu / PT / Plat / RBC / Ret / WBC / APTT: tissue Blood; for KIDNEY_L / KIDNEY_R / KIDNEY_TOTAL: tissue Kidney; for LIVER: tissue Liver; for ALP / AST / BUN / CRE / Ca / Cl / DBIL / GLC / IP / LDH / Na / PL / RALB / TBIL / TC / TG / TP / gamma-GTP: tissue Plasma
[1] = 30 mg/kg, 72 h, dose level Middle, time 3 day
[2] = 30 mg/kg, […], dose level Middle, time 7 day
[3] = 30 mg/kg, […], dose level Middle, time 14 day
[4] = 30 mg/kg, […], dose level Middle, time 28 day
[5] = 100 mg/kg, 72 h, dose level High, time 3 day
[6] = 100 mg/kg, […], dose level High, time 7 day
[7] = 100 mg/kg, […], dose level High, time 14 day
[8] = 100 mg/kg, […], dose level High, time 28 day

CC(=O)N1CCN(c2ccc(OCC3COC(Cn4ccnc4)(c4ccc(Cl)cc4Cl)O3)cc2)CC1 (configuration not stated) [KETOCONAZOLE]
Bas [1]: 0%
Eos [1]: 1%
Fbg [1]: 303.8 mg/dL
Hb [1]: 13.4 g/dL
Ht [1]: 39.7%
Lym [1]: 77.4%
MCH [1]: 21.4 pg
MCHC [1]: 33.8%
MCV [1]: 63.3 fL
Mono [1]: 2.4%
Neu [1]: 18.2%
PT [1]: 16.3 s
Plat [1]: 117.1 x10_4/uL
RBC [1]: 627.6 x10_4/ul
Ret [1]: 5.6%
WBC [1]: 101.1 x10_2/uL
KIDNEY_L [1]: 1 g
KIDNEY_R [1]: 1.1 g
KIDNEY_TOTAL [1]: 2.1 g
LIVER [1]: 10.5 g
ALP [1]: 1639 IU/L
AST [1]: 67.4 IU/L
BUN [1]: 17.8 mg/dL
CRE [1]: 0.1 mg/dL
Ca [1]: 10.8 mg/dL
Cl [1]: 106.4 meq/L
DBIL [1]: 0 mg/dL
GLC [1]: 181.8 mg/dL
IP [1]: 6.7 mg/dL
LDH [1]: 236.6 IU/L
Na [1]: 139.8 meq/L
PL [1]: 141.8 mg/dL
RALB [1]: 3.1 g/dL
TBIL [1]: 0.01 mg/dL
TC [1]: 71 mg/dL
TG [1]: 88.6 mg/dL
TP [1]: 5.7 g/dL
gamma-GTP [1]: 1.2 IU/L
TERMINAL_BW [2]: 265.9 g
TERMINAL_BW [3]: 312.9 g
TERMINAL_BW [4]: 360.4 g
APTT [2]: 21.8 s
Bas [2]: 0%
Eos [2]: 1%
Fbg [2]: 321.6 mg/dL
Hb [2]: 13.5 g/dL
Ht [2]: 39.7%
Lym [2]: 75.8%
MCH [2]: 21.2 pg
MCHC [2]: 34%
MCV [2]: 62.4 fL
Mono [2]: 2.4%
PT [2]: 16 s
Plat [2]: 121.4 x10_4/uL
RBC [2]: 636.6 x10_4/ul
Ret [2]: 5.4%
WBC [2]: 103.7 x10_2/uL
APTT [3]: 21.1 s
Bas [3]: 0%
Eos [3]: 0.8%
Fbg [3]: 291.8 mg/dL
Hb [3]: 13.4 g/dL
Ht [3]: 39.6%
Lym [3]: 76%
MCH [3]: 20.5 pg
MCHC [3]: 33.8%
MCV [3]: 60.7 fL
Mono [3]: 2.4%
Neu [3]: 19.2%
PT [3]: 16.2 s
Plat [3]: 126.1 x10_4/uL
RBC [3]: 652.8 x10_4/ul
Ret [3]: 4.9%
WBC [3]: 115.1 x10_2/uL
APTT [4]: 25 s
Bas [4]: 0%
Eos [4]: 1%
Fbg [4]: 286.6 mg/dL
Hb [4]: 15.2 g/dL
Ht [4]: 43.9%
Lym [4]: 76.8%
MCH [4]: 19.6 pg
MCHC [4]: 34.5%
MCV [4]: 56.9 fL
Mono [4]: 1.6%
PT [4]: 16.9 s
Plat [4]: 105.3 x10_4/uL
RBC [4]: 773.4 x10_4/ul
Ret [4]: 2.6%
WBC [4]: 102.4 x10_2/uL
KIDNEY_L [2]: 1.2 g
KIDNEY_R [2]: 1.2 g
KIDNEY_TOTAL [2]: 2.3 g
KIDNEY_L [3]: 1.3 g
KIDNEY_R [3]: 1.3 g
KIDNEY_TOTAL [3]: 2.6 g
KIDNEY_L [4]: 1.3 g
KIDNEY_R [4]: 1.4 g
KIDNEY_TOTAL [4]: 2.7 g
LIVER [2]: 12.2 g
LIVER [3]: 14.4 g
LIVER [4]: 15.1 g
ALP [2]: 1565.4 IU/L
AST [2]: 70.4 IU/L
BUN [2]: 18.2 mg/dL
CRE [2]: 0.1 mg/dL
Ca [2]: 10.6 mg/dL
Cl [2]: 108.2 meq/L
DBIL [2]: 0 mg/dL
GLC [2]: 176.4 mg/dL
IP [2]: 6.9 mg/dL
LDH [2]: 171.8 IU/L
Na [2]: 142 meq/L
PL [2]: 145 mg/dL
RALB [2]: 3 g/dL
TBIL [2]: 0.004 mg/dL
TC [2]: 70.4 mg/dL
TG [2]: 135.4 mg/dL
TP [2]: 5.7 g/dL
gamma-GTP [2]: 1.6 IU/L
ALP [3]: 1247.8 IU/L
AST [3]: 65.4 IU/L
BUN [3]: 18.2 mg/dL
CRE [3]: 0.1 mg/dL
Ca [3]: 10.4 mg/dL
Cl [3]: 106.8 meq/L
DBIL [3]: 0 mg/dL
GLC [3]: 180.8 mg/dL
IP [3]: 6.6 mg/dL
LDH [3]: 194.8 IU/L
Na [3]: 142.2 meq/L
PL [3]: 140 mg/dL
RALB [3]: 3 g/dL
TBIL [3]: 0.004 mg/dL
TC [3]: 68.6 mg/dL
TG [3]: 134 mg/dL
TP [3]: 5.8 g/dL
gamma-GTP [3]: 1 IU/L
ALP [4]: 1104.2 IU/L
AST [4]: 66.8 IU/L
BUN [4]: 18.4 mg/dL
CRE [4]: 0.2 mg/dL
Ca [4]: 10.4 mg/dL
DBIL [4]: 0 mg/dL
GLC [4]: 179 mg/dL
IP [4]: 4.9 mg/dL
LDH [4]: 155.2 IU/L
Na [4]: 142.4 meq/L
PL [4]: 126 mg/dL
RALB [4]: 3.1 g/dL
TBIL [4]: 0.008 mg/dL
TC [4]: 61.6 mg/dL
TP [4]: 6.1 g/dL
gamma-GTP [4]: 1.2 IU/L
TERMINAL_BW [5]: 230.7 g
APTT [5]: 20.5 s
Bas [5]: 0%
Eos [5]: 0.8%
Fbg [5]: 321 mg/dL
Hb [5]: 13.3 g/dL
Ht [5]: 39.8%
MCH [5]: 20.9 pg
MCHC [5]: 33.5%
MCV [5]: 62.4 fL
Mono [5]: 2.8%
Neu [5]: 16.2%
PT [5]: 16.2 s
Plat [5]: 128.4 x10_4/uL
RBC [5]: 639 x10_4/ul
Ret [5]: 5.2%
WBC [5]: 83.5 x10_2/uL
KIDNEY_L [5]: 1.1 g
KIDNEY_R [5]: 1 g
KIDNEY_TOTAL [5]: 2.1 g
LIVER [5]: 12.1 g
ALP [5]: 1481 IU/L
AST [5]: 63.8 IU/L
BUN [5]: 19.2 mg/dL
CRE [5]: 0.2 mg/dL
Ca [5]: 10.8 mg/dL
Cl [5]: 105.6 meq/L
DBIL [5]: 0 mg/dL
GLC [5]: 179.6 mg/dL
IP [5]: 7 mg/dL
LDH [5]: 261.8 IU/L
Na [5]: 141 meq/L
PL [5]: 133.6 mg/dL
RALB [5]: 3 g/dL
TBIL [5]: 0.004 mg/dL
TC [5]: 72.4 mg/dL
TG [5]: 73.2 mg/dL
TP [5]: 5.8 g/dL
gamma-GTP [5]: 1.6 IU/L
TERMINAL_BW [6]: 256.9 g
TERMINAL_BW [7]: 298.5 g
TERMINAL_BW [8]: 353.3 g
APTT [6]: 20.6 s
Bas [6]: 0%
Eos [6]: 0.4%
Fbg [6]: 302.4 mg/dL
Hb [6]: 12.9 g/dL
Ht [6]: 38.5%
Lym [6]: 79.4%
MCH [6]: 21 pg
MCHC [6]: 33.6%
MCV [6]: 62.6 fL
Mono [6]: 1.2%
Neu [6]: 17.6%
PT [6]: 16.1 s
Plat [6]: 111.5 x10_4/uL
RBC [6]: 616.2 x10_4/ul
Ret [6]: 5.5%
WBC [6]: 106.4 x10_2/uL
APTT [7]: 20.9 s
Bas [7]: 0%
Eos [7]: 0.4%
Fbg [7]: 316 mg/dL
Hb [7]: 13.9 g/dL
Ht [7]: 41.6%
Lym [7]: 72.4%
MCH [7]: 20.3 pg
MCHC [7]: 33.5%
MCV [7]: 60.6 fL
Mono [7]: 1.4%
Neu [7]: 24.6%
PT [7]: 16.3 s
Plat [7]: 122.8 x10_4/uL
RBC [7]: 687.8 x10_4/ul
Ret [7]: 4.5%
WBC [7]: 85.7 x10_2/uL
APTT [8]: 23.2 s
Bas [8]: 0%
Eos [8]: 1.2%
Fbg [8]: 314.2 mg/dL
Hb [8]: 14.5 g/dL
Ht [8]: 42.3%
Lym [8]: 72%
MCH [8]: 19.1 pg
MCHC [8]: 34.2%
MCV [8]: 55.8 fL
Mono [8]: 1.8%
Neu [8]: 24%
PT [8]: 17.1 s
Plat [8]: 109.8 x10_4/uL
RBC [8]: 758.8 x10_4/ul
Ret [8]: 3%
WBC [8]: 86.3 x10_2/uL
KIDNEY_L [6]: 1.2 g
KIDNEY_R [6]: 1.2 g
KIDNEY_TOTAL [6]: 2.4 g
KIDNEY_L [7]: 1.3 g
KIDNEY_R [7]: 1.3 g
KIDNEY_TOTAL [7]: 2.6 g
KIDNEY_L [8]: 1.4 g
KIDNEY_R [8]: 1.4 g
KIDNEY_TOTAL [8]: 2.8 g
LIVER [7]: 15 g
LIVER [8]: 16.1 g
ALP [6]: 1138 IU/L
AST [6]: 64.8 IU/L
BUN [6]: 17.2 mg/dL
CRE [6]: 0.1 mg/dL
Ca [6]: 10.8 mg/dL
Cl [6]: 107.6 meq/L
DBIL [6]: 0 mg/dL
GLC [6]: 189.6 mg/dL
IP [6]: 7 mg/dL
LDH [6]: 203 IU/L
Na [6]: 143.6 meq/L
PL [6]: 119.6 mg/dL
RALB [6]: 2.9 g/dL
TBIL [6]: 0 mg/dL
TC [6]: 62.4 mg/dL
TG [6]: 73.8 mg/dL
TP [6]: 5.8 g/dL
gamma-GTP [6]: 1 IU/L
ALP [7]: 1375.6 IU/L
AST [7]: 67.8 IU/L
BUN [7]: 16.8 mg/dL
CRE [7]: 0.1 mg/dL
Ca [7]: 10.4 mg/dL
Cl [7]: 106 meq/L
DBIL [7]: 0 mg/dL
GLC [7]: 177.8 mg/dL
IP [7]: 6.3 mg/dL
LDH [7]: 194.4 IU/L
Na [7]: 143.8 meq/L
PL [7]: 138.2 mg/dL
RALB [7]: 3.1 g/dL
TBIL [7]: 0.004 mg/dL
TC [7]: 70.4 mg/dL
TG [7]: 114.8 mg/dL
TP [7]: 6 g/dL
gamma-GTP [7]: 1.2 IU/L
ALP [8]: 1014.6 IU/L
AST [8]: 65.8 IU/L
BUN [8]: 16.8 mg/dL
CRE [8]: 0.2 mg/dL
Ca [8]: 10.3 mg/dL
Cl [8]: 106.8 meq/L
DBIL [8]: 0 mg/dL
GLC [8]: 187.6 mg/dL
IP [8]: 5.9 mg/dL
LDH [8]: 154 IU/L
Na [8]: 142.2 meq/L
PL [8]: 111.8 mg/dL
RALB [8]: 3.2 g/dL
TBIL [8]: 0.016 mg/dL
TC [8]: 57 mg/dL
TG [8]: 56.4 mg/dL
TP [8]: 6.1 g/dL
gamma-GTP [8]: 1.6 IU/L
